Source: patent publication US12247011B2, “Selective inhibitors of NLRP3 inflammasome” (NodThera Limited, priority 2017, dated 2025)
pIC50: −log10 of the molar value.

test system: IL-1β release upon NLRP3 activation in peripheral blood mononuclear cells (PBMC); assay: PBMC IC50 Determination Assay; type: cell-based; settings: Homo sapiens; LPS-primed PBMC, 30 min compound, stimulated with ATP (5 mM) or nigericin (10 μM) for 1 h; IL-1β ELISA; read-out: PBMC IC50

Row | SMILES | pIC50
1 | CC(C)OC(=O)C(Cc1ccnnc1)OC(=O)Nc1c2c(cc3c1CCC3)CCC2 (stereo not drawn) [Compound 128, Propan-2-yl 2-{[(1,2,3,5,6,7-hexahydro-s-indacen-4-yl)carbamoyl]oxy}-3-(pyridazin-4-yl)propanoate] | 6.00 to 7.00
2 | N#Cc1cnn(C[C@@H](OC(=O)Nc2c3c(cc4c2CCC4)CCC3)C(=O)OC2CCCC2)c1 [Compound 113, Cyclopentyl (2R)-3-(4-cyano-1H-pyrazol-1-yl)-2-{[(1,2,3,5,6,7-hexahydro-s-indacen-4-yl)carbamoyl]oxy}propanoate] | > 8.00
3 | O=C(Nc1c2c(cc3c1CCC3)CCC2)O[C@H](Cc1cnccn1)C(=O)O [Compound 109, (2R)-2-{[(1,2,3,5,6,7-hexahydro-s-indacen-4-yl)carbamoyl]oxy}-3-(pyrazin-2-yl)propanoic acid] | 6.00 to 7.00
